From US9284321B2, “Piperazino[1,2-a]indol-1-ones and [1,4]diazepino[1,2-a]indol-1-one” (Hoffmann-La Roche Inc., priority 2012, dated 2016)

What was measured:
[1] = system: human embryonic stem cell derived neural stem cells (NSCs); experiment: Neural Stem Cell Proliferation Assay (neurogenesis assay, ATP levels by CellTiterGlo); type: cell-based; details: 96 h, compound concentration at which 150% activity of control (100%) is reached, NSC proliferation by ATP level after 4 days incubation, dose response 8 μM to 8 nM
Outline: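 Human ESC-derived NSCs (dual SMAD inhibition) seeded 4 h before compounds, 11-point 2-fold series 8 μM–8 nM; 4 days at 37 °C, 5% CO2. ATP by CellTiterGlo luminescence as cell-number proxy, response as % of media control (0.25% DMSO); EC150 = concentration giving 150% of control.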

melting point [°C] | Compound | EC (150% of control) [1] [µM]
243 | Cc1c2n(c3c(-c4ccc(F)c(F)c4)cc(C#N)cc13)CCNC2=O [Example 164, 6-(3,4-Difluoro-phenyl)-10-methyl-1-oxo-1,2,3,4-tetrahydro-pyrazino[1,2-a]indole-8-carbonitrile] | 0.045
266 | Cc1c2n(c3c(-c4cccc(C#N)c4)cc(C#N)cc13)CCNC2=O [Example 279, 6-(3-Cyanophenyl)-10-methyl-1-oxo-3,4-dihydro-2H-pyrazino[1,2-a]indole-8-carbonitrile] | 0.31
369.5 | N#Cc1cc(-c2ccc([N+](=O)[O-])cc2)c2c(c1)cc1n2CCNC1=O [Example 232, 6-(4-Nitrophenyl)-1-oxo-3,4-dihydro-2H-pyrazino[1,2-a]indole-8-carbonitrile] | 0.02
193.5 | N#Cc1cc(-c2ccc([N+](=O)[O-])cc2)c2c(c1)cc1n2CCCNC1=O [Example 234, 7-(4-Nitrophenyl)-1-oxo-2,3,4,5-tetrahydro-[1,4]diazepino[1,2-a]indole-9-carbonitrile] | 0.21
359 | N#Cc1cc(-c2ccc(C(F)(F)F)cc2)c2c(c1)cc1n2CCNC1=O [Example 95, 1-Oxo-6-(4-trifluoromethyl-phenyl)-1,2,3,4-tetrahydro-pyrazino[1,2-a]indole-8-carbonitrile] | 0.018
193 | O=C1NCCn2c1c(C(F)(F)F)c1cc(F)cc(-c3ccc(F)cc3)c12 [Example 181, 8-Fluoro-6-(4-fluoro-phenyl)-10-trifluoromethyl-3,4-dihydro-2H-pyrazino[1,2-a]indol-1-one] | 0.62
250 | Cc1c2n(c3c(-c4ccc(N)nc4)cc(Cl)cc13)CCNC2=O [Example 161, 6-(6-Amino-pyridin-3-yl)-8-chloro-10-methyl-3,4-dihydro-2H-pyrazino[1,2-a]indol-1-one] | 0.27
307 | Cc1c2n(c3c(-c4ccncc4)cc(C#N)cc13)CCNC2=O [Example 243, 10-Methyl-1-oxo-6-pyridin-4-yl-3,4-dihydro-2H-pyrazino[1,2-a]indole-8-carbonitrile] | 0.09
289 | N#Cc1cc(-c2ccnc(F)c2)c2c(c1)cc1n2CCNC1=O [Example 177, 6-(2-Fluoro-pyridin-4-yl)-1-oxo-1,2,3,4-tetrahydro-pyrazino[1,2-a]indole-8-carbonitrile] | 0.68
321.5 | Cc1c2n(c3c(-c4ccc(S(C)(=O)=O)cc4)cc(Cl)cc13)CCNC2=O [Example 107, 8-Chloro-6-(4-methanesulfonyl-phenyl)-10-methyl-3,4-dihydro-2H-pyrazino[1,2-a]indol-1-one] | 0.027
306 | Cc1c2n(c3c(-c4ccc(N)nc4)cc(C#N)cc13)CCCNC2=O [Example 251, 7-(6-Aminopyridin-3-yl)-11-methyl-1-oxo-2,3,4,5-tetrahydro-[1,4]diazepino[1,2-a]indole-9-carbonitrile] | 0.29
295 | Cc1c2n(c3c(-c4ccc(C#N)cc4)cc(F)cc13)CCNC2=O [Example 124, 4-(8-Fluoro-10-methyl-1-oxo-1,2,3,4-tetrahydro-pyrazino[1,2-a]indol-6-yl)-benzonitrile] | 0.023
286 | N#Cc1cc(-c2ccnc(Cl)c2)c2c(c1)cc1n2CCNC1=O [Example 227, 6-(2-Chloropyridin-4-yl)-1-oxo-3,4-dihydro-2H-pyrazino[1,2-a]indole-8-carbonitrile] | 0.55
218.5 | Cc1c2n(c3c(-c4cccc(Cl)c4)cc(Cl)cc13)CCNC2=O [Example 115, 8-Chloro-6-(3-chloro-phenyl)-10-methyl-3,4-dihydro-2H-pyrazino[1,2-a]indol-1-one] | 0.43
281 | Cc1c2n(c3c(-c4ccnc(Cl)c4)cc(C#N)cc13)CCNC2=O [Example 281, 6-(2-Chloropyridin-4-yl)-10-methyl-1-oxo-3,4-dihydro-2H-pyrazino[1,2-a]indole-8-carbonitrile] | 0.22

The remaining lines, values behind:

Compound | melting point [°C] | EC (150% of control) [1] [µM]
Cc1ccc(-c2cc(Cl)cc3cc4n(c23)CCCNC4=O)cc1 [Example 47, 9-Chloro-7-p-tolyl-2,3,4,5-tetrahydro-[1,4]diazepino[1,2-a]indol-1-one] | 227 | 0.6
O=C1NCCn2c1cc1cc(F)c(F)c(-c3ccc(Cl)cc3)c12 [Example 45, 6-(4-Chloro-phenyl)-7,8-difluoro-3,4-dihydro-2H-pyrazino[1,2-a]indol-1-one] | 332.5 | 0.076
O=C1NCCn2c1cc1cc(F)cc(-c3ccc(F)c(F)c3)c12 [Example 22, 6-(3,4-Difluoro-phenyl)-8-fluoro-3,4-dihydro-2H-pyrazino[1,2-a]indol-1-one] | 289.5 | 0.037
CC1CCNC(=O)c2cc3cc(F)cc(-c4ccc(F)cc4)c3n21 (racemic) [Example 27, (RS)-9-Fluoro-7-(4-fluoro-phenyl)-5-methyl-2,3,4,5-tetrahydro-[1,4]diazepino[1,2-a]indol-1-one] | 235.5 | 0.18
Cc1c2n(c3c(-c4ccncc4)cc(F)cc13)CCNC2=O [Example 83, 8-Fluoro-10-methyl-6-pyridin-4-yl-3,4-dihydro-2H-pyrazino[1,2-a]indol-1-one] | 290 | 0.039
O=C1NCCn2c1cc1cc(Cl)cc(-c3ccc(F)cc3)c12 [Example 51, 8-Chloro-6-(4-fluoro-phenyl)-3,4-dihydro-2H-pyrazino[1,2-a]indol-1-one] | 298 | 0.098
Cc1c2n(c3c(-c4cc(F)cc(F)c4)cc(F)cc13)CCNC2=O [Example 84, 6-(3,5-Difluoro-phenyl)-8-fluoro-10-methyl-3,4-dihydro-2H-pyrazino[1,2-a]indol-1-one] | 250 | 0.15
O=C1NCCn2c1cc1cc(F)c(F)c(-c3ccc(F)c(F)c3)c12 [Example 44, 6-(3,4-Difluoro-phenyl)-7,8-difluoro-3,4-dihydro-2H-pyrazino[1,2-a]indol-1-one] | 305 | 0.3
Cc1ccc(-c2cc(C#N)cc3cc4n(c23)CCNC4=O)cc1 [Example 94, 1-Oxo-6-p-tolyl-1,2,3,4-tetrahydro-pyrazino[1,2-a]indole-8-carbonitrile] | 285.5 | 0.011
C[C@@H]1CNC(=O)c2cc3cccc(-c4ccccc4)c3n21 [Example 1, (R)-4-Methyl-6-phenyl-3,4-dihydro-2H-pyrazino[1,2-a]indol-1-one] | 239 | 3.97
Cc1c2n(c3c(-c4ccc(F)c(F)c4)cc(F)cc13)CCNC2=O [Example 72, 6-(3,4-Difluoro-phenyl)-8-fluoro-10-methyl-3,4-dihydro-2H-pyrazino[1,2-a]indol-1-one] | 229.5 | 0.12
